Source: patent US7309591B2, “Method for the production of resveratrol in cell cultures” (Universidad de Alicante, priority 2002, dated 2007)

Tests used:
[1] = tested on: Vitis vinifera var. Monastrell green line cells; assay: Elicitation of t-resveratrol production in grapevine cell suspension, Monastrell green; type: cell-based; conditions: cyclodextrin 50 mmol/liter in medium (BETA 15 mmol/liter); 96 hours of incubation; heavy presence of cis-resveratrol
Experimental: (§1) Vitis vinifera var. Monastrell: Two grapevine cell lines of cultivar Monastrell, one established in the dark (albino line) and another established in the presence of white light (green line) from immature fruits have been used. All manipulations and incubations for the green line were carried out in lighting conditions, but for the albino line, incubations for callus generation, development, and growth, as well as incubations of cell suspensions, were performed in the dark. For this, immature grapes approximately 5 mm in diameter were superficially sterilized by immersion in a 7% calcium hypochlorite solution for 15 minutes. After this time, and always under sterile conditions, grapes were washed 3 times with sterile bidistilled water, their seeds removed, and were divided into 4 portions. These portions (explants) were deposited until microcalluses appeared in a Petri dish containing a solid culture medium based on the medium reported by Murashige and Skoog (Murashige, T and Skoog, F. 1962. “A revised medium for rapid growth and bioassays with tobacco tissue cultures”. Physiologia Plantarum 15:473-497), supplemented with Morel vitamins, casein hydrolysate (0.25 g/l), saccharose (30 g/l) as carbonated source, and α-nafthalenacetic acid (0.1 mg/l) and kinetin (0.2 mg/l) as hormones, 8 g/l of purified agar, and adjusted to pH 6. Finally, these microcalluses were transferred to 250 ml flasks containing 80 ml of this same solid culture medium for callus development. Cell suspensions were started, from friable calluses, in 250 ml flasks containing 80 ml of Gamborg B5 basal medium, supplemented with Morel vitamins, casein hydrolysate (0.25 g/l), saccharose (20 g/l) as carbonated source, and α-nafthalenacetic acid (0.1 mg/l) and kinetin (0.2 mg/l) as hormones, in the absence of agar. The cells in liquid medium were kept in an orbital shaker at 100 rpm and 25° C.; the green line was submitted to a photoperiod of 14 hours of light (6 W/m^2) and 10 h in the dark, whereas the albino line was kept in the dark at all times.
(§2) For each elicitation experience, 4 g of fresh weight of cells previously washed with fresh medium and filtered were taken under sterile conditions. These cells were transferred to 50 ml flasks and replaced by the addition of 10 ml of sterile fresh medium supplemented in each case with the cyclodextrins stated below:
(§3) The flasks were incubated under the same conditions as described above for time periods ranging from 24 and 96 hours.
(§4) Once the incubation time had been completed, the cells were separated from the medium by filtration by making a slight vacuum with the help of a water pump, and the cells and the filtrate were separately collected.
(§5) For this, an aliquot of the filtrate was diluted in fresh medium, filtered through a 0.2 μm Anopore filter, and 20 μl of filtrate were injected in a LiChrospher 100 RP-18 column (250×4 mm, particle size 5 μm). Two types of solvents were used as mobile phase: solvent A, 0.05% trifluoroacetic acid in water, and solvent B, 0.05% trifluoroacetic acid in methanol:acetonitrile 60:40 vol/vol. The sample is eluted at a flow rate of 1 ml/min of the following solvent mixture: 0 min, 10% B; 5 min, 15% B; 40 min, 35% B; 45 min, 65% B; 50 min, 65% B; 55 min, 10% B; and at a column temperature of 35° C. (Dalluge et al., 1998. J. Chromatogr. A 793:265-274). […] Gamay corresponding to the start of incubation and to 96 hours of incubation in a culture medium containing RAMEB.
(§6) For routine analysis of t-resveratrol, an aliquot of the filtrate was diluted with fresh medium and its ultraviolet absorption spectrum was recorded using a Kontron Uvikon 940 spectrophotometer taking as reference the fresh medium. The concentration of t-resveratrol in the supernatant was estimated using a molar extinction coefficient at 306 nm of 26,800 M^−1 cm^−1 (Siemann, E. H. and Creasy, L. L. 1992, “Concentration of the phytoalexin resveratrol in wine”, Am. J. Enol. Vitic. 43:49-52). […]

[2] = tested on: Vitis vinifera var. Gamay rouge cells; assay: Elicitation of t-resveratrol production in grapevine cell suspension, Gamay rouge; type: cell-based; conditions: cyclodextrin 50 mmol/liter in medium (BETA 15 mmol/liter); 96 hours of incubation; occasional presence of other unidentified phenolic products
Experimental: Vitis vinifera var. Gamay rouge: A grapevine cell line established by J. C. Pech in 1978 (ENSAT, Toulouse, France) from immature fruits of grapevine from the cultivar Gamay Fréaux has been used. The calluses were kept in 250 ml flasks containing 80 ml of Gamborg B5 basal medium (Gamborg et al. 1968. Experimental Cell Research 50:151-158) supplemented with Morel vitamins (Morel, G. 1970. “Le probléme de la transformation tumorale chez les végétaux”. Physiologie Végétale, 8:189-204), casein hydrolysate (0.25 g/l), saccharose (20 g/l) as carbonated source, and α-nafthalenacetic acid (0.1 mg/l) and kinetin (0.2 mg/l) as hormones (hereinafter, medium). This medium is adjusted to pH 6 and sterilized by applying humid heat (autoclave) for 20 min at a pressure of 121.2 kPa (1.2 athm), acquiring a solid consistency by the addition of purified agar (8 g/l) when the medium is cooled. Cell suspensions were started, from friable calluses obtained in the above described medium, in 250 ml flasks containing 80 ml of agar-free medium. The cells in liquid medium were kept in an orbital shaker at 100 rpm and 25° C., under a photoperiod of 14 hours of light (6 W/m^2) and 10 h in the dark.
as §2, §3, §4, §5
For routine analysis of t-resveratrol, an aliquot of the filtrate was diluted with fresh medium and its ultraviolet absorption spectrum was recorded using a Kontron Uvikon 940 spectrophotometer taking as reference the fresh medium. The concentration of t-resveratrol in the supernatant was estimated using a molar extinction coefficient at 306 nm of 26,800 M^−1 cm^−1 (Siemann, E. H. and Creasy, L. L. 1992, “Concentration of the phytoalexin resveratrol in wine”, Am. J. Enol. Vitic. 43:49-52). […] Gamay corresponding to the start of incubation and to 96 hours of incubation in a culture medium containing RAMEB.
The results obtained, expressed as mg of t-resveratrol per litre of filtrate, eliciting the cells with different cyclodextrins at concentrations of 50 mmol/litre of culture medium (except for BETA, for which the concentration corresponds to 15 mmol/litre due to its lower solubility), after 96 hours of incubation are given in Table 1.

[3] = tested on: Vitis vinifera var. Monastrell albino line cells; assay: Elicitation of t-resveratrol production in grapevine cell suspension, Monastrell albino; type: cell-based; conditions: cyclodextrin 50 mmol/liter in medium (BETA 15 mmol/liter); 96 hours of incubation; kept in the dark
Experimental: as §1, §2, §3, §4, §5, §6

[4] = tested on: crypt formation in aberrant colon; conditions: rat model treated with a carcinogenic agent (azoxymethane); cited from earlier work
[5] = Solubility of t-resveratrol in an aqueous medium; type: physicochemical; conditions: 25° C., 5 days in the dark
Experimental: Five millilitres of a 11,410 mg/l solution of t-resveratrol (99% pure according to the supplier; Sigma, Madrid) in ethanol were placed in an spherical bottle, and ethanol was evaporated to dryness with a N2 current. Residual ethanol was eliminated by keeping the bottle under low pressure overnight. Five millilitres of aqueous medium were added to the solid residue, and the bottle was tightly closed and kept under shaking at 25° C. for 5 days in the dark. The resulting suspension was filtered through 0.2 μm Anopore filters, and the concentration of t-resveratrol in the filtrate was analyzed by UV spectroscopy.
The concentration of t-resveratrol in the filtrates, expressed as mg oft-resveratrol per litre of filtrate, is given in Table 2.

[6] = tested on: grapevine cells in suspension; assay: Effect of cyclodextrins on grapevine cells in suspension (overall comparison, toxicity); type: cell-based, Vitis vinifera; conditions: for Capacity to induce the synthesis of t-resveratrol compared with the other cyclodextrins tested: grapevine cells in suspension, 96 hours
Experimental: as §2, §3
It is also noted that the intensity of the effect depends on the variety and the cell line (greater production is seen in the albino Monastrell variety than in the green Monastrell variety).

[7] = tested on: grapevine cell suspensions (Vitis vinifera var. Gamay); conditions: cited from earlier work

Row | Compound | Trans-Resveratrol (mg/l) in filtrate, Monastrell green [1] | Trans-Resveratrol (mg/l) in filtrate, Gamay Rouge [2] | Trans-Resveratrol (mg/l) in filtrate, Monastrell albino [3] | further results
1 | (2-hydroxy) propyl-β-cyclodextrin [HYPROB] | 90 mg/L | 990 mg/L | 4110 mg/L | –
2 | Oc1ccc(/C=C/c2cc(O)cc(O)c2)cc1 [t-resveratrol, trans-3,5,4′-trihydroxystilbene] | – | – | – | Inhibition of crypt formation in aberrant colon [4]: significant inhibition of crypt formation; Solubility of t-resveratrol ([5]; Culture medium supplemented with 6.55 mg/ml of CAVASOL ® W7 M): 767 mg t-resveratrol/liter filtrated; Solubility of t-resveratrol ([5]; Culture medium supplemented with 6.55 mg/ml of DIMEB): 735 mg t-resveratrol/liter filtrated; Solubility of t-resveratrol ([5]; Culture medium supplemented with 6.55 mg/ml of RAMEB): 786 mg t-resveratrol/liter filtrated; Solubility of t-resveratrol ([5]; Culture medium): 48.8 mg t-resveratrol/liter filtrated; Solubility of t-resveratrol ([5]; Ultrapure water): 36.5 mg t-resveratrol/liter filtrated
3 | Randomly methylated β-cyclodextrin [RAMEB] | 101 mg/L | 3320 mg/L | 5027 mg/L | Capacity to induce the synthesis of t-resveratrol compared with the other cyclodextrins tested [6]: greater capacity to induce the synthesis of t-resveratrol
4 | COC[C@H]1O[C@@H]2O[C@H]3[C@H](O)[C@@H](OC)[C@@H](O[C@H]4[C@H](O)[C@@H](OC)[C@@H](O[C@H]5[C@H](O)[C@@H](OC)[C@@H](O[C@H]6[C@H](O)[C@@H](OC)[C@@H](O[C@H]7[C@H](O)[C@@H](OC)[C@@H](O[C@H]8[C@H](O)[C@@H](OC)[C@@H](O[C@H]1[C@H](O)[C@H]2OC)O[C@@H]8COC)O[C@@H]7COC)O[C@@H]6COC)O[C@@H]5COC)O[C@@H]4COC)O[C@@H]3COC [DIMEB, Heptakis (2,6-di-O-methyl)-β-cyclodextrin] | 90 mg/L | 3060 mg/L | 4680 mg/L | Ability to induce synthesis of t-resveratrol excreted into the culture medium [7]: induce
5 | Randomly methylated β-cyclodextrin [CAVASOL ® W7 M] | 92 mg/L | 3280 mg/L | 4963 mg/L | Capacity to induce the synthesis of t-resveratrol compared with the other cyclodextrins tested [6]: greater capacity to induce the synthesis of t-resveratrol
6 | OC[C@H]1O[C@H](O[C@H]2[C@H](O)[C@@H](O)[C@@H](OC[C@H]3O[C@@H]4O[C@H]5[C@H](O)[C@@H](O)[C@@H](O[C@H]6[C@H](O)[C@@H](O)[C@@H](O[C@H]7[C@H](O)[C@@H](O)C(O[C@H]8[C@H](O)[C@@H](O)[C@@H](O[C@H]9[C@H](O)[C@@H](O)[C@@H](O[C@H]%10[C@H](O)[C@@H](O)[C@@H](O[C@H]3[C@H](O)[C@H]4O)O[C@@H]%10CO)O[C@@H]9CO)O[C@@H]8CO)O[C@@H]7CO)O[C@@H]6CO)O[C@@H]5CO)O[C@@H]2CO)[C@H](O)[C@@H](O)[C@@H]1O [MALTOSYL, Maltosyl-β-cyclodextrin] | 20 mg/L | 390 mg/L | 660 mg/L | –
7 | OC[C@H]1O[C@@H]2O[C@H]3[C@H](O)[C@@H](O)[C@@H](O[C@H]4[C@H](O)[C@@H](O)[C@@H](O[C@H]5[C@H](O)[C@@H](O)[C@@H](O[C@H]6[C@H](O)[C@@H](O)[C@@H](O[C@H]7[C@H](O)[C@@H](O)[C@@H](O[C@H]8[C@H](O)[C@@H](O)[C@@H](O[C@H]1[C@H](O)[C@H]2O)O[C@@H]8CO)O[C@@H]7CO)O[C@@H]6CO)O[C@@H]5CO)O[C@@H]4CO)O[C@@H]3CO [BETA, β-cyclodextrin] | 0 mg/L | 30 mg/L | 60 mg/L | –
8 | sulphated β-cyclodextrin sodium salt [SULFOB] | 0 mg/L | 0 mg/L | 0 mg/L | Toxicity to grapevine cells in suspension ([6]; 50 mmol/liter in culture medium): toxic and kill the cells
